Counter-ions that a name gives are not always drawn.

For one assay, the target named is AaDOP2 (Aedes aegypti, UniProt H6D5H2). In words: AaDOP2 antagonist screen of the LOPAC1280 library (HEK-CRELuc-Aadop2 cells, luminescence). Format: cell-based.
Chain of AaDOP2 (H6D5H2 1-476): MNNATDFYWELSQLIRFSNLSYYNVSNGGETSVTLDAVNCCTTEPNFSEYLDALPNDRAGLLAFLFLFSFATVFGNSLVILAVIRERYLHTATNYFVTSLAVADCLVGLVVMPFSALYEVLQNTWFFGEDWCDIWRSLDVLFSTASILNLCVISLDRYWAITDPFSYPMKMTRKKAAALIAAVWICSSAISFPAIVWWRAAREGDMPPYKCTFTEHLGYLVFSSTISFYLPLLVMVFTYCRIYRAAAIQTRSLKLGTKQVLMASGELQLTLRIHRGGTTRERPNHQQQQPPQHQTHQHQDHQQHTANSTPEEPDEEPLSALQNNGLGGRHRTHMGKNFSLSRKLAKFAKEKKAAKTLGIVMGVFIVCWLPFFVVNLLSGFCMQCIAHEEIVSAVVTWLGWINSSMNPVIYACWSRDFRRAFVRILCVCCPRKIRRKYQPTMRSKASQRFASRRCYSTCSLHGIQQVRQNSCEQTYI
Conditions: not given
For `O=c1[nH]c(=O)n([C@H]2C[C@H](O)[C@@H](CO)O2)cc1/C=C/Br` [Compound 194, (E)-5-(2-Bromovinyl)-2'-deoxyuridine], the “Compound effect (percent receptor signaling in presence of test compound, relative lux units relative to the SCH23390 control)” value amounted to 121. Same read-out and setting: in the case of `OC(CN1CCN(c2cccc(Cl)c2)CC1)C(c1ccccc1)c1ccccc1` (stereo not shown) [Compound 195, BRL 15572] it was 84; in that of `C=CCc1ccccc1OCC(O)CNC1(C)CCC(C(C)(C)NC(=O)CBr)CC1` (stereo not shown) [Compound 198, Bromoacetyl alprenolol menthane], 87; in that of `COc1cccc(OC)c1OCCNCC1CSc2ccccc2O1` (stereo not shown) [Compound 199, Benoxathian hydrochloride], 68. On the same count and under the same terms, in the case of `CC(COc1ccccc1)N(CCCl)Cc1ccccc1` (stereo not shown) [Compound 200, Phenoxybenzamine hydrochloride] it was 86; in that of `CC(NC(C)(C)C)C(=O)c1cccc(Cl)c1` (stereo not shown) [Compound 201, Bupropion hydrochloride], 77. Same read-out and setting: in the case of `C[N+](C)(C)CCOC(=O)CBr.[Br-]` [Compound 204, Bromoacetylcholine bromide] it was 91. Turning to `Cl.c1ccc2sc(C3(N4CCCCC4)CCCCC3)cc2c1` [Compound 207, BTCP hydrochloride], the “Compound effect (percent receptor signaling in presence of test compound, relative lux units relative to the SCH23390 control)” value is given as 100. Turning to `CN1CCC(c2c[nH]c3ccc(O)cc23)CC1.O=C(O)/C=C\C(=O)O` [Compound 213, BRL 54443 maleate], the “Compound effect (percent receptor signaling in presence of test compound, relative lux units relative to the SCH23390 control)” value worked out at 80. The same measure, in the same setting: in the case of `CC(N)Cc1c[nH]c2ccc(OCc3cccs3)cc12` (stereo not shown) [Compound 214, BW 723C86] it was 92; in that of `O=C(O)CCCc1ccc(N(CCCl)CCCl)cc1` [Compound 215, Chlorambucil], 106; in that of `C[N+](C)(C)CCOP(=O)([O-])OP(=O)([O-])OC[C@H]1O[C@@H](n2ccc(N)nc2=O)[C@H](O)[C@@H]1O.[Na+]` [Compound 216, Citicoline sodium], 91. With `CC(C)(Oc1ccc(C2CC2(Cl)Cl)cc1)C(=O)O` (stereo not shown) [Compound 217, Ciprofibrate], the “Compound effect (percent receptor signaling in presence of test compound, relative lux units relative to the SCH23390 control)” value came to 97. For the molecule `O=NN(CCCl)C(=O)NCCCl` [Compound 219, Carmustine], the “Compound effect (percent receptor signaling in presence of test compound, relative lux units relative to the SCH23390 control)” value is 82. In the case of `CCC(C)N(C)C(=O)c1cc2ccccc2c(-c2ccccc2Cl)n1` (stereo not shown) [Compound 220, PK 11195], the “Compound effect (percent receptor signaling in presence of test compound, relative lux units relative to the SCH23390 control)” value was 84. In the case of `O=C(O)/C=C/c1ccc(O)c(O)c1` [Compound 221, Caffeic Acid], the “Compound effect (percent receptor signaling in presence of test compound, relative lux units relative to the SCH23390 control)” value amounted to 114. For the molecule `O=C1CCc2cc(OCCCCc3nnnn3C3CCCCC3)ccc2N1` [Compound 222, Cilostazol], the “Compound effect (percent receptor signaling in presence of test compound, relative lux units relative to the SCH23390 control)” value came to 108.

Turning to `O=P1(N(CCCl)CCCl)NCCCO1` (stereo not shown) [Compound 224, Cyclophosphamide monohydrate], the “Compound effect (percent receptor signaling in presence of test compound, relative lux units relative to the SCH23390 control)” value is recorded as 83.

On to `CC(C)(CO)Cc1cc(C(C)(C)C)c(O)c(C(C)(C)C)c1` [Compound 225, CGP-7930], for which the “Compound effect (percent receptor signaling in presence of test compound, relative lux units relative to the SCH23390 control)” value is given as 89. The same measure, in the same setting: the value for `CC(C)(C=O)Cc1cc(C(C)(C)C)c(O)c(C(C)(C)C)c1` [Compound 226, CGP-13501] was 98; that for `CCCCCCC(C)(C)c1ccc([C@@H]2C[C@H](O)CC[C@H]2CCCO)c(O)c1` [Compound 227, CP55940] was 85.

In the case of `N[C@H]1CON=C1O` [Compound 228, L-Cycloserine], the “Compound effect (percent receptor signaling in presence of test compound, relative lux units relative to the SCH23390 control)” value amounted to 88. Still for that read-out and setting: the value for `O=S(=O)(c1cccc2c(Cl)cccc12)N1CCCNCC1` [Compound 229, ML-9] was 102; that for `CCCNC(=O)NS(=O)(=O)c1ccc(Cl)cc1` [Compound 231, Chlorpropamide] was 98; that for `COc1ccc2c(c1)c(CC(=O)O)c(C)n2Cc1ccc(Cl)cc1` [Compound 232, 1-(4-Chlorobenzyl)-5-methoxy-2-methylindole-3-acetic acid] was 77. Still for that read-out and setting: the value for `C[N+](C)(C)CCO.[Br-]` [Compound 234, Choline bromide] was 89; that for `NC(=O)c1cc(N2CC2)c([N+](=O)[O-])cc1[N+](=O)[O-]` [Compound 236, CB 1954] was 81.

Take `C[C@]12C[C@H](O)[C@H]3[C@@H](CCC4=CC(=O)CC[C@@]43C)[C@@H]1CC[C@@H]2C(=O)CO` [Compound 238, Corticosterone]: the “Compound effect (percent receptor signaling in presence of test compound, relative lux units relative to the SCH23390 control)” value worked out at 87. Still for that read-out and setting: in the case of `N.N.O=C([O-])C1(C(=O)[O-])CCC1.[Pt+2]` [Compound 239, Carboplatin] it was 83. Still for that read-out and setting: the value for `COc1ccc2c(c[n+](C)c3c4cc5c(cc4ccc23)OCO5)c1OC` [Compound 241, Chelerythrine chloride] was 112; that for `Clc1ccc(C(c2ccccc2Cl)C(Cl)Cl)cc1` (stereo not shown) [Compound 242, 1-(2-Chlorophenyl)-1-(4-chlorophenyl)-2,2-dichloroethane] was 108.

On to `CC(=O)OCC(=O)[C@@]1(O)CC[C@H]2[C@@H]3CCC4=CC(=O)CC[C@]4(C)[C@H]3C(=O)C[C@@]21C` [Compound 244, Cortisone 21-acetate], for which the “Compound effect (percent receptor signaling in presence of test compound, relative lux units relative to the SCH23390 control)” value turned out to be 110. On the same count and under the same terms, in the case of `CCn1cnc2c(Nc3cccc(Cl)c3)nc(N[C@@H]3CCCC[C@@H]3N)nc21.Cl` [Compound 246, CGP-74514A hydrochloride] it was 99. `CC(=O)O[C@]1(C(C)=O)CC[C@H]2[C@@H]3C=C(Cl)C4=CC(=O)[C@@H]5C[C@@H]5[C@]4(C)[C@H]3CC[C@@]21C` [Compound 247, Cyproterone acetate]: the “Compound effect (percent receptor signaling in presence of test compound, relative lux units relative to the SCH23390 control)” value is 115. On the same count and under the same terms, in the case of `N[C@@H]1CON=C1O` [Compound 250, D-Cycloserine] it was 91. Turning to `Clc1ccc(C(c2ccc(Cl)cc2)n2cc[n+](CC(OCc3ccc(Cl)cc3Cl)c3ccc(Cl)cc3Cl)c2)cc1` (stereo not shown) [Compound 252, Calmidazolium chloride], the “Compound effect (percent receptor signaling in presence of test compound, relative lux units relative to the SCH23390 control)” value worked out at 44. Turning to `Cn1cc(C(=O)OCC2CCN(CCNS(C)(=O)=O)CC2)c2ccccc21` [Compound 253, GR 113808], the “Compound effect (percent receptor signaling in presence of test compound, relative lux units relative to the SCH23390 control)” value was 97.

With `NC(=O)N1c2ccccc2C=Cc2ccccc21` [Compound 254, Carbamazepine], the “Compound effect (percent receptor signaling in presence of test compound, relative lux units relative to the SCH23390 control)” value is on record as 75.

In the case of `C[C@H](CS)C(=O)N1CCC[C@H]1C(=O)O` [Compound 255, Captopril], the “Compound effect (percent receptor signaling in presence of test compound, relative lux units relative to the SCH23390 control)” value amounted to 112.

Staying with this assay, now noted: 10 µM compound, 300 nM dopamine, 2 hr; hit = compound effect <20.
On to `Cl.NCC(O)c1cc(O)c(O)cc1F` (stereo not shown) [Compound 197, 6-Fluoronorepinephrine hydrochloride], for which the “Compound effect (percent receptor signaling in presence of test compound, relative lux units relative to the SCH23390 control)” value came out at 90%.

`COc1ccccc1N1CCN(CCN2C(=O)CC3(CCCC3)CC2=O)CC1.Cl.Cl` [Compound 205, BMY 7378 dihydrochloride]: the “Compound effect (percent receptor signaling in presence of test compound, relative lux units relative to the SCH23390 control)” value was determined as 102%. The same measure, in the same setting: in the case of `Br.C=CCN1CCc2c(cc(O)c(O)c2Br)[C@@H](c2ccccc2)C1` [Compound 206, R(+)-6-Bromo-APB hydrobromide] it was 182%; in that of `CCNC(=O)[C@H]1O[C@@H](n2cnc3c(NCc4ccccc4)ncnc32)[C@H](O)[C@@H]1O` [Compound 208, N6-Benzyl-5'-N-ethylcarboxamidoadenosine], 108%; in that of `Cl.c1ccc2nc(C3=NCCN3)ccc2c1` [Compound 209, BU224 hydrochloride], 92%. Same read-out and setting: the value for `CCN1CCc2nc(N)oc2CC1.Cl.Cl` [Compound 210, B-HT 933 dihydrochloride] was 79%. Same read-out and setting: the value for `C[C@H](Cc1ccc(OCC(=O)[O-])cc1)NC[C@H](O)c1cccc(Cl)c1.[Na+]` [Compound 212, BRL 37344 sodium] was 87%; that for `COc1cc2c(CCNC(C)=O)c[nH]c2cc1Cl` [Compound 218, 6-Chloromelatonin] was 90%; that for `Cl.Cl.NCCC(=O)NCCc1cnc[nH]1` [Compound 237, Carcinine dihydrochloride] was 95%.

With `C[C@]12CCC(=O)C=C1CC[C@@H]1[C@@H]2C(=O)C[C@@]2(C)[C@H]1CC[C@]2(O)C(=O)CO` [Compound 240, Cortisone], the “Compound effect (percent receptor signaling in presence of test compound, relative lux units relative to the SCH23390 control)” value is on record as 86%.
